Experimental data reported in patent US9433663B2, “Mobilization of hematopoietic stem cells” (Children's Hospital Medical Center, priority 2008, dated 2016).

Assays:
Lin^− BM cells = assay: FACS analysis of F-actin in Lin− BM cells; assay type: cell-based, murine; details: column-selected Lin^− BM cells, dose-dependent pattern
Excerpt: (§1) To shed light on potential roles of CASIN in HSPC mobilization, the effects of CASIN on Cdc42-related cellular functions was studied, including adhesion, migration, and F-actin polymerization of progenitor cells in 32D myeloid progenitors. […] SDF-1α stimulation causes a reorganization of F-actin into a cortical ring around the cells. […] Thirdly, to gain further insight into cellular specificity and efficacy of CASIN, and also to rule out possible toxic effects by CASIN, Cdc42-involved BM progenitor cell functions were examined, including proliferation, adhesion, migration, and F-actin polymerization, in Cdc42^+/+ cells in parallel with Cdc42^−/− cells. In line with additional studies in a Cdc42 conditional knockout mouse model as described herein, Cdc42^−/− LDBM cells have increased CFU-forming progenitors compared to those of Cdc42^+/+.

N-RasMA93 cells = assay: adhesion of N-RasMA93 leukemia cells via CH296; assay type: cell-based, human; details: in vitro
Protocol: FIG. 5C. Adhesion of leukemia cells via CH296 without or with CASIN pre-treatment at doses of 5 and 10 μM was examined.
Like normal HSCs, their malignant counterpart, leukemia initiating cells (LICs) reside in their BM niches that provide the structural and physiological conditions supporting their survival and growth. LICs are resistant to traditional chemotherapy by interacting with their BM microenvironment, which are the culprits of leukemia relapses after a period of remission induced by chemotherapy. Detachment of LICs from their niche by CASIN would be a valuable supplementary therapy to the traditional cancer therapies (e.g., chemotherapies). First of all, in vitro effects of CASIN were examined in adhesion, migration, and F-actin polymerization of LICs, each of which is independently important for the retention of LICs in BM niches. Retroviral transduction of an MLL-AF9 fusion cDNA together with N-Ras oncogene into normal human CD34^+cord blood cells led to the establishment of cultures of N-Ras-MA93 cells that can initiate acute myeloid leukemia in NOG mice. […] To address it, a human AML model was set up by transplanting N-RasMA93 cells into NOG mice intravenously.

donor cell engraftment = assay: Example 9 mobilization as preparative regimen for HSC transplantation; assay type: in vivo, mice
Protocol: If the microenvironmental niches are vacated after CASIN exposure, donor HSCs might engraft better in hosts treated with a mobilizing agent such as CASIN compared with non-mobilized controls. To test this, bone marrow transplantation is performed on recipient mice which are pre-conditioned with CASIN. […] Additionally, AMD3100, G-CSF, and control medium are used in parallel with CASIN as controls.
Briefly, mice are treated with CASIN, and 4×10^7 donor bone marrow cells from congenic mouse strain are transplanted 48 h later. Donor cell engraftment is assayed at 3 months using the congenic markers by flow cytometry.
Additionally, multiple cycles of mobilization with CASIN may increase the number of available niches. Therefore, this study investigates whether repeated cycles of CASIN mobilization, each followed by donor cell transplantation, could result in increased engraftment. Briefly, mice receive one weekly injection of CASIN on 3 consecutive weeks and 4×10^7 donor marrow cells are transplanted 48 hours after each mobilization. Control animals also received 3 weekly infusions of 4×10^7 donor marrow cells but no CASIN. And the donor engraftment is assayed at 3 months after transplantation as well.

WASP = assay: phosphorylation of WASP in 32D progenitors; assay type: cell-based, murine; details: FIG. 7D
Excerpt: FIG. 7D. CASIN treatment in 32 progenitors led to dampened phosphorylation of WASP, […].

LDBM cells = assay: CFU-migration assay of LDBM progenitors towards SDF-1α; assay type: cell-based, murine
Excerpt: as §1
Murine LDBM cells from Cdc42^+/+ as well as Cdc42^−/− mice were used for CFU-adhesion/migration experiments as described previously. Briefly, for adhesion experiment, in the presence or absence of prior CASIN treatment at doses of 5 and 10 μM, 10^5 cells were plated onto each well of 48-well plates pre-coated with fibronectin fragment CH296, which contains integrin α4β1-binding site. Adherent cells then were harvested by cells dissociation buffer (Gibco, Carlsbad, Calif.), and further plated in CFU assay. […]

Cdc42 = Cdc42 (Homo sapiens, UniProt P60953); assay: Rho GTPase effector pulldown in human CD34+ umbilical cord blood cells, Cdc42; assay type: cell-based; set-up: endogenous in cells; host or cells: human CD34+ umbilical cord blood cells (HCB); details: human CD34^+ HCBs
Protocol: To begin to study potential utility of CASIN in human hematopoietic stem cell mobilization, a series of cellular assays were carried out to determine the effects on human CD34^+ umbilical cord blood cells (HCBs). […] The effects of CASIN on human hematopoietic cell mobilization was therefore tested using a well established preclinical in vivo model (NOD/SCID-Hcb) of human hematopoietic function, where fresh CD34^+ hCB cells were transplanted into sub-lethally irradiated NOD/SCIDs by intrafemoral injection, and repopulated and maintained human hematopoietic reconstitution in the bone marrow of NOD/SCID recipient mice (FIG. 9b, FIG. 11) (Larochelle, A. et al. Nat Med 2, 1329-1337 (1996); Bhatia, M., et al. Proc Natl Acad Sci USA 94, 5320-5325 (1997)). Intravenous injections of CASIN were applied when human cells were well engrafted in the NOD/SCID recipients.
To analyze the effects of CASIN on the formation of active GTP-bound Cdc42, RhoA, and Rac1, effector pulldown assays were carried out as described previously. Cdc42GAP^−/− MEF, LDBM, CD34^+ hCB cells were treated with CASIN at doses of 5-20 μM in parallel with vehicle control for 2 hrs after overnight starvation, and stimulated with cytokines subsequently. […]

Sequence of Cdc42 (P60953 whole entry): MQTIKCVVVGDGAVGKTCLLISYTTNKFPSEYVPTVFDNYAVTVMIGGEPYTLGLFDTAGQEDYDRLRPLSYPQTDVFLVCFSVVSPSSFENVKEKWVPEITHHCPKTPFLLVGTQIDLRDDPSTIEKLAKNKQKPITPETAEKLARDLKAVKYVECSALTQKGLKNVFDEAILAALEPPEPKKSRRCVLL

With `OCCNC1CCCc2c1[nH]c1ccc(-c3ccccc3)cc21` (stereo not shown) [CASIN] the “F-actin reorganization in response to SDF-1α” value (Lin^− BM cells) was “impaired”, the “adhesion capacity of N-RasMA93 cells” value (N-RasMA93 cells) was “not affected significantly” and the “engraftment with 3-cycle administration and subsequent transplantation” value (donor cell engraftment; 3 weekly cycles) was “further improved compared to one cycle”. The “engraftment of donor cells in pre-conditioned recipients” value (donor cell engraftment; compared to the non-mobilization control) was “significantly increased engraftment of donor cells”, the “phosphorylation of WASP” value (WASP) was “dampened” and the “directional migration capacity of Cdc42^−/− cells” value (LDBM cells) was “did not affect”. The Cdc42 activity (Cdc42) was “specifically inhibit”.
